# Patent publication US20110118337A1, “Method of Using Compositions Comprising MIR-192 and/or MIR-215 for the Treatment of Cancer” (Merck Sharp & Dohme Corp., priority 2008, published 2011)
# What was measured:
# HCT116DICER^ex5 cells [1] = assay: Cell cycle FACS screen of pools of three siRNAs per gene (G1 after nocodazole, G2/M after aphidicolin); assay type: cell-based, human; settings: pools of 3 siRNAs/gene at 100 nM final, FACS 66 hours post-transfection, average of two experiments
# Description: To identify targets whose modulation influences the cell cycle arrest phenotype observed with miR-192 expression, the 62 candidate genes identified as described in Example 2 and shown in TABLE 3 were silenced individually by transfecting a pool of 3 gene-specific siRNA duplexes per gene (each directed to a different region of the gene) into HCT116DICER^ex5 cells. The siRNA duplex sequences (3 duplexes per gene) used to target each of the 62 genes are shown below in TABLE 5. The siRNA duplex oligonucleotides were obtained from Sigma-Genesys, as described in Linsley, P. S. et al., Mol Cell Biol 27:2240-2252 (2007).
# HCT116DICER^ex5 cells were transiently transfected with pools of three different siRNA duplexes per gene at a 100 nM final concentration using Lipofectamine RNAiMax (Invitrogen), according to the manufacturer's instructions. At 48 hours post transfection, cells were left untreated, treated with nocodazole (100 ng/mL, Sigma-Aldrich), or treated with aphidicolin (2 μg/mL, Sigma-Aldrich) for an additional 18 hours before harvesting. The cells transfected with the siRNA pools were then screened by FACS analysis as described in Example 3 for the percentage of cells arrested in G1 or G2/M as compared to the negative siRNA luciferase control.
# The siRNA pools tested in this screen were ranked according to the percentage of cells arrested in G1 or G2/M following transfection, as compared with a negative control siRNA targeting luciferase. To avoid being misled by possible RNAi off-target effects, the siRNA pools were deconvoluted to identify genes for which at least 2 different siRNA duplexes from the pool caused the cell cycle arrest phenotype (data not shown).
# TABLE 6 summarizes the data obtained 66 hours post-transfection by FACS analysis showing the cell cycle distribution of the HCT116DICER^ex5 cells transfected with siRNA pools of 3 siRNAs/gene. Each pool was analyzed in two separate experiments, and the average percentage of the cells trapped in G1 (following nocodazole treatment), or G2/M (following aphidicolin treatment) are shown in TABLE 6.
# HCT116DICER^ex5 cells [2] = assay: Transfection of siRNA pools (G1 or G2 gene set) at suboptimal levels, cell cycle FACS analysis (nocodazole or aphidicolin); assay type: cell-based, human; settings: 10 nM; for % G1 / % G2: 66 hours post transfection
# Protocol: […] At 48 hours post-transfection into HCT116DICER^ex5 cells, the cells were treated with nocodazole for an additional 18 hours prior to FACS analysis.
# […] At 48 hours post-transfection into HCT116DICER^ex5 cells, the cells were treated with aphidicolin for an additional 18 hours prior to FACS analysis.
substance,measurement,setting,value
"miR-192: Synthetic duplex mimetic of miR-192, guide CUGACCUAUGAAUUGACAGCC (SEQ ID NO:1), passenger SEQ ID NO:7 (sense CUGUCAAUUCAUCGGUCUGAU; listed as RNA, chemistry not given here; listed as Homo sapiens)","% G2 (Avg), Aphidicholin+",HCT116DICER^ex5 cells [1]; aphidicolin 2 μg/mL 18 h,54.9%
same,"% G1 (Avg), Nocodazole+",HCT116DICER^ex5 cells [1]; nocodazole 100 ng/mL 18 h,43.6%
same,% G1,HCT116DICER^ex5 cells [2]; after aphidicolin treatment,50.4%
same,% G2,HCT116DICER^ex5 cells [2]; after aphidicolin treatment,44.7%
same,G2 arrest phenotype,HCT116DICER^ex5 cells [2]; aphidicolin,induced a G2-arrest phenotype
same,G1 arrest phenotype,HCT116DICER^ex5 cells [2]; nocodazole,induced a G1-arrest phenotype
same,% G1,HCT116DICER^ex5 cells [2]; nocodazole,43.9%
same,% G2,HCT116DICER^ex5 cells [2]; nocodazole,53.6%
